# Activity calls are given as the source filed them. No cut-off for these calls is given here.
# Legend:
# U-266 = assay: Antiproliferative activity against human U266B1 cells assessed as cell growth inhibition incubated for 48 hrs by CCK8 colorimetric assay; format: functional, cell-based; conditions: U-266, 48 h
# RPMI-8226 = assay: Antiproliferative activity against human RPMI-8226 cells assessed as cell growth inhibition incubated for 48 hrs by CCK8 colorimetric assay; format: functional, cell-based; conditions: RPMI-8226, 48 h
# RS4-11 [1] = assay: Antiproliferative activity against human RS4-11 cells assessed as cell growth inhibition incubated for 48 hrs by CCK8 colorimetric assay; format: functional, cell-based; conditions: RS4-11, 48 h
# PCNA-associated factor = target: T1, PCNA-associated factor (Homo sapiens, UniProt Q15004); assay: Binding affinity to PCLAF (unknown origin) assessed as equilibrium dissociation constant by SPR assay
# T1 sequence (Q15004 whole entry): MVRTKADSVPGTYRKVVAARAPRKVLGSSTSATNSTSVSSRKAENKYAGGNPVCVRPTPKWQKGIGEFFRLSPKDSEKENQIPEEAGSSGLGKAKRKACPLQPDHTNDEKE
# RS4-11 [2] = assay: Antitumor activity against human RS4-11 cells xenografted in NOD/SCID mouse assessed as tumor growth inhibition at 1 mg/kg,iv administration for 5 consecutive days; format: functional, organism-based
# [3] = Toxicity in NOD/SCID mouse xenografted with human RS4-11 cells assessed as adverse effect at 5 mg/kg,iv qd administration for 5 consecutive days; format: organism-based; conditions: in vivo
# RS4-11 [4] = assay: Induction of cell cycle arrest in human RS4-11 cells assessed as accumulation of cells at G1 phase incubated for 48 hrs by propidium iodide staining based flow cytometry analysis; format: functional
# [5] = target: T2, Protein cereblon/PCNA-associated factor (Homo sapiens, UniProt Q15004+Q96SW2); assay: PROTAC activity at CRBN/PCLAF in human RS4-11 cells assessed as degradation of PCLAF protein at 100 nM incubated for 12 hrs by Western blotting analysis; format: cell-based
# Target sequence in this assay (Q96SW2 whole entry, looked up, one chain of several): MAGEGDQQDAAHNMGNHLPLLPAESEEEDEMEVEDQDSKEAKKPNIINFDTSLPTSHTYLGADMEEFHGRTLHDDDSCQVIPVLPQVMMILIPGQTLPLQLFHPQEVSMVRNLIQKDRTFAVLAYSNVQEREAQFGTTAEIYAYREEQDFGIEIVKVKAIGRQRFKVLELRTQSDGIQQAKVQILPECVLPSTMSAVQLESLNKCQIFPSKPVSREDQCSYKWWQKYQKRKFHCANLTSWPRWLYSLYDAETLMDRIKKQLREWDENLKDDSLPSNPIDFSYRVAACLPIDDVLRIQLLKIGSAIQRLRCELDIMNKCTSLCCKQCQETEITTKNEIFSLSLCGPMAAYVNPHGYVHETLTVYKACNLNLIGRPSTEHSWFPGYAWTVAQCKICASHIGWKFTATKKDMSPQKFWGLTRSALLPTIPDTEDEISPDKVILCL
# [6] = target: T2, Protein cereblon/PCNA-associated factor; assay: PROTAC activity at CRBN/PCLAF in human RS4-11 cells assessed as downregulation of Rb phosphorylation at 10 to 100 nM by Western blotting analysis; format: cell-based; conditions: dose 10-100 nM
# Target sequence in this assay (Q96SW2 whole entry, looked up, one chain of several): as above
# RS4-11 [7] = assay: Antitumor activity against human RS4-11 cells xenografted in NOD/SCID mouse assessed as increase in survival day at IV administration for 5 consecutive days; format: functional
# [8] = target: T2, Protein cereblon/PCNA-associated factor; assay: PROTAC activity at CRBN/PCLAF in human RS4-11 cells assessed as degradation of PCLAF protein at 100 nM incubated for 12 hrs in presence of MG132 by Western blotting analysis; format: cell-based
# Target sequence in this assay (Q96SW2 whole entry, looked up, one chain of several): as above
# [9] = target: T2, Protein cereblon/PCNA-associated factor; assay: PROTAC activity at CRBN/PCLAF in human RS4-11 cells assessed as degradation of PCLAF protein at 40 nM incubated for 40 mins by DARTS analysis; format: cell-based
# Target sequence in this assay (Q96SW2 whole entry, looked up, one chain of several): as above
# RS4-11 [10] = assay: Induction of apoptosis in human RS4-11 cells incubated for 48 hrs Annexin V-FITC/PI staining based flow cytometry analysis; format: functional, cell-based
# [11] = Toxicity in NOD/SCID mouse xenografted with human RS4-11 cells assessed as change in body weight at 25 mg/kg,iv qd administration for 5 consecutive days; format: organism-based; conditions: in vivo
# [12] = Toxicity in NOD/SCID mouse xenografted with human RS4-11 cells assessed as adverse effect at 1 mg/kg,iv qd administration for 5 consecutive days; format: organism-based; conditions: in vivo
# [13] = Toxicity in NOD/SCID mouse xenografted with human RS4-11 cells assessed as pathological change in kidney at 25 mg/kg,iv qd administration for 5 consecutive days by hematoxylin and eosin staining based microscopic analysis; format: organism-based; conditions: in vivo
# RS4-11 [14] = assay: Induction of apoptosis in human RS4-11 cells assessed as increase in late apoptosis at 10 to 200 nM incubated for 48 hrs Annexin V-FITC/PI staining based flow cytometry analysis; format: functional, cell-based; conditions: dose 10-200 nM
# [15] = Oral bioavailability in Sprague-Dawley rat at 50 mg/kg measured upto 24 hrs by LC-MS/MS analysis; format: ADME, organism-based; conditions: in vivo
# [16] = target: T2, Protein cereblon/PCNA-associated factor; assay: PROTAC activity at CRBN/PCLAF in human RS4-11 cells assessed as degradation of PCLAF protein by Western blotting analysis; format: cell-based
# Target sequence in this assay (Q96SW2 whole entry, one chain of several): as the sequence (Q96SW2 whole entry, looked up, one chain of several) above
# [17] = target: T2, Protein cereblon/PCNA-associated factor; assay: PROTAC activity at CRBN/PCLAF in human RS4-11 cells assessed as maximal degradation of PCLAF protein at 24 hr by Western blotting analysis; format: cell-based
# Target sequence in this assay (Q96SW2 whole entry, looked up, one chain of several): as above
# [18] = target: T2, Protein cereblon/PCNA-associated factor; assay: PROTAC activity at CRBN/PCLAF in human RS4-11 cells assessed as maximal degradation of PCLAF protein by Western blotting analysis relative to control; format: cell-based
# Target sequence in this assay (Q96SW2 whole entry, looked up, one chain of several): as above
# [19] = target: T2, Protein cereblon/PCNA-associated factor; assay: PROTAC activity at CRBN/PCLAF in human RS4-11 cells assessed as degradation of PCLAF protein at 100 nM measured after 24 hr of compound washout by Western blotting analysis; format: cell-based
# [20] = Toxicity in NOD/SCID mouse xenografted with human RS4-11 cells assessed as pathological change in heart at 25 mg/kg,iv qd administration for 5 consecutive days by hematoxylin and eosin staining based microscopic analysis; format: organism-based; conditions: in vivo
# [21] = target: T3, PCNA-associated factor (Homo sapiens) (UniProt Q15004); assay: Binding affinity to PCLAF in human RS4-11 cells assessed as thermal stability at 100 uM incubated for 60 mins by CETSA assay; format: cell-based
# T3 sequence (whole entry): T1 sequence (Q15004 whole entry)
# [22] = target: T2, Protein cereblon/PCNA-associated factor; assay: PROTAC activity at CRBN/PCLAF in human RS4-11 cells assessed as upregulation of p21 protein at 10 to 100 nM by Western blotting analysis; format: cell-based; conditions: dose 10-100 nM
# RS4-11 [23] = assay: Induction of apoptosis in human RS4-11 cells assessed as upregulation of Bax level at 10 to 100 nM by Western blotting analysis; format: functional, cell-based; conditions: dose 10-100 nM
# [24] = Toxicity in NOD/SCID mouse xenografted with human RS4-11 cells assessed as change in body weight at 5 mg/kg,iv qd administration for 5 consecutive days; format: organism-based; conditions: in vivo
# RS4-11 [25] = assay: Induction of apoptosis in human RS4-11 cells assessed as increase in early apoptosis at 10 to 200 nM incubated for 48 hrs Annexin V-FITC/PI staining based flow cytometry analysis; format: functional, cell-based; conditions: dose 10-200 nM
# [26] = target: T2, Protein cereblon/PCNA-associated factor; assay: PROTAC activity at CRBN/PCLAF in human RS4-11 cells assessed as degradation of PCLAF protein at 100 nM incubated for 12 hrs in presence of SM1044 by Western blotting analysis; format: cell-based
# [27] = target: T2, Protein cereblon/PCNA-associated factor; assay: PROTAC activity at CRBN/PCLAF in human RS4-11 cells assessed as degradation of PCLAF protein at 10 to 100 nM by Western blotting analysis; format: cell-based; conditions: dose 10-100 nM
# [28] = Toxicity in NOD/SCID mouse xenografted with human RS4-11 cells assessed as pathological change in liver at 25 mg/kg,iv qd administration for 5 consecutive days by hematoxylin and eosin staining based microscopic analysis; format: organism-based; conditions: in vivo
# [29] = target: T2, Protein cereblon/PCNA-associated factor; assay: PROTAC activity at CRBN/PCLAF in human RS4-11 cells assessed as degradation of PCLAF protein at 100 nM incubated for 12 hrs in presence of pomalidomide by Western blotting analysis; format: cell-based
# RS4-11 [30] = assay: Induction of apoptosis in human RS4-11 cells assessed as downregulation of Bcl-2 level at 10 to 100 nM by Western blotting analysis; format: functional, cell-based; conditions: dose 10-100 nM
# [31] = Toxicity in NOD/SCID mouse xenografted with human RS4-11 cells assessed as maximum tolerated dose at IV administration for 5 consecutive days; conditions: in vivo
# RS4-11 [32] = assay: Antitumor activity against human RS4-11 cells xenografted in NOD/SCID mouse assessed as tumor growth inhibition at 5 mg/kg,iv administration for 5 consecutive days; format: functional, organism-based
# [33] = target: T2, Protein cereblon/PCNA-associated factor; assay: PROTAC activity at CRBN/PCLAF in human RS4-11 cells assessed as degradation of PCLAF protein at 4 hr by Western blotting analysis; format: cell-based
# [34] = Toxicity in NOD/SCID mouse xenografted with human RS4-11 cells assessed as change in body weight at 1 mg/kg,iv qd administration for 5 consecutive days; format: organism-based; conditions: in vivo
smiles,measurement,setting,value
C[C@@H]1CCC2[C@@H](C)[C@@H](OCCN(CCO[C@H]3O[C@@H]4O[C@@]5(C)CCC6[C@H](C)CCC([C@H]3C)[C@]64OO5)C(=O)CCCCCCCCNc3cccc4c3C(=O)N(C3CCC(=O)NC3=O)C4=O)O[C@@H]3O[C@@]4(C)CCC1[C@@]23OO4 (stereo partly drawn),IC50,U-266,0.407 µM
same,IC50,RPMI-8226,0.322 µM
same,IC50,RS4-11 [1],0.0724 µM
C[C@@H]1CCC2[C@@H](C)[C@@H](OCCN(CCO[C@H]3O[C@@H]4O[C@@]5(C)CCC6[C@H](C)CCC([C@H]3C)[C@]64OO5)C(=O)CCCCCNc3cccc4c3C(=O)N(C3CCC(=O)NC3=O)C4=O)O[C@@H]3O[C@@]4(C)CCC1[C@@]23OO4 (stereo partly drawn),IC50,U-266,0.543 µM
same,IC50,RPMI-8226,0.148 µM
same,IC50,RS4-11 [1],0.0968 µM
C[C@@H]1CCC2[C@@H](C)[C@@H](OCCN(CCO[C@H]3O[C@@H]4O[C@@]5(C)CCC6[C@H](C)CCC([C@H]3C)[C@]64OO5)C(=O)CCCCCCNc3cccc4c3C(=O)N(C3CCC(=O)NC3=O)C4=O)O[C@@H]3O[C@@]4(C)CCC1[C@@]23OO4 (stereo partly drawn),IC50,U-266,0.265 µM
same,IC50,RPMI-8226,0.104 µM
same,IC50,RS4-11 [1],0.0794 µM
C[C@@H]1CCC2[C@@H](C)[C@@H](OCCN(CCO[C@H]3O[C@@H]4O[C@@]5(C)CCC6[C@H](C)CCC([C@H]3C)[C@]64OO5)C(=O)CCCCNc3cccc4c3C(=O)N(C3CCC(=O)NC3=O)C4=O)O[C@@H]3O[C@@]4(C)CCC1[C@@]23OO4 (stereo partly drawn),IC50,U-266,> 1 µM
same,IC50,RPMI-8226,> 1 µM
same,IC50,RS4-11 [1],0.243 µM
C[C@H]1[C@@H](OCCNCCO[C@H]2O[C@@H]3O[C@]4(C)CC[C@H]5[C@H](C)CC[C@@H]([C@H]2C)[C@@]35OO4)O[C@@H]2O[C@]3(C)CC[C@H]4[C@H](C)CC[C@@H]1[C@@]24OO3,IC50,U-266,> 1 µM
same,IC50,RPMI-8226,> 1 µM
same,IC50,RS4-11 [1],0.641 µM
same,Kd,PCNA-associated factor,183 µM
C[C@@H]1CCC2[C@@H](C)[C@@H](OCCN(CCO[C@H]3O[C@@H]4O[C@@]5(C)CCC6[C@H](C)CCC([C@H]3C)[C@]64OO5)C(=O)CCCCCCCNc3cccc4c3C(=O)N(C3CCC(=O)NC3=O)C4=O)O[C@@H]3O[C@@]4(C)CCC1[C@@]23OO4 (stereo partly drawn),Activity,RS4-11 [2],Active
same,IC50,U-266,0.343 µM
same,Activity,[3],Non-Toxic
same,Activity,RS4-11 [4],Dose-Dependent Effect
same,Activity,[5],Active
same,Activity,[6],Active
same,Activity,RS4-11 [7],Dose-Dependent Effect
same,Activity,[8],inactive
same,Activity,[9],inactive
same,Activity,RS4-11 [10],Dose-Dependent Effect
same,Activity,[11],Non-Toxic
same,Activity,[12],Non-Toxic
same,Activity,[13],Non-Toxic
same,Activity,RS4-11 [14],Active
same,IC50,RPMI-8226,0.235 µM
same,bioavailability,[15],24%
same,DC50,[16],0.0549 µM
same,Activity,[17],Active
same,IC50,RS4-11 [1],0.0506 µM
same,Emax,[18],95%
same,Activity,[19],inactive
same,Activity,[20],Non-Toxic
same,Activity,[21],Active
same,Activity,[22],Active
same,Activity,RS4-11 [23],Active
same,Activity,[24],Non-Toxic
same,Activity,RS4-11 [25],Active
same,Activity,[26],inactive
same,Activity,[27],Active
same,Kd,PCNA-associated factor,6.1 µM
same,Activity,[28],Non-Toxic
same,Activity,[29],inactive
same,Activity,RS4-11 [30],Active
same,MTD at 5 days,[31],25 mg/kg
same,Activity,RS4-11 [32],Active
same,Activity,[33],Active
same,Activity,[34],Non-Toxic
